Legend:
Format in all cases: functional
[1] = test system: Mus musculus; assay: (§1) Anti-asthmatic activity in ovalbumin-induced asthmatic BALB/c mouse model assessed as 100 mg/ml methacholine-induced airway resistance at 20 mg/kg, po co-administered with ovalbumin from day 21 to 28 of experiment period measured post last dose by plethysmography (reference value: 84.5 +/- 2.41 cmH2O/ml)
[2] = test system: Mus musculus; assay: as §1, with “12.5” for “100”, “6.03” for “84.5”, “1.02” for “2.41”
[3] = test system: Mus musculus; assay: as §1, with “6.25” for “100”, “2.44” for “84.5”, “0.87” for “2.41”
[4] = test system: Mus musculus; assay: Anti-asthmatic activity in ovalbumin-induced asthmatic BALB/c mouse model assessed as IgE level in plasma at 20 mg/kg, po co-administered with ovalbumin from day 21 to 28 of experiment period by ELISA (reference value: 2544.05 +/- 229.07 ng/ml)
[5] = test system: Mus musculus; assay: as §1, with “50” for “100”, “64.33” for “84.5”, “3.41” for “2.41”
[6] = test system: Mus musculus; assay: as §1, with “25” for “100”, “14.03” for “84.5”, “1.15” for “2.41”
[7] = test system: Mus musculus; assay: as §1, with “0.6” for “20”
[8] = test system: Mus musculus; assay: Anti-asthmatic activity in ovalbumin-induced asthmatic BALB/c mouse model assessed as IgE level in plasma at 0.6 mg/kg, po co-administered with ovalbumin from day 21 to 28 of experiment period by ELISA (reference value: 2544.05 +/- 229.07 ng/ml)
[9] = test system: Mus musculus; assay: as §1, with “25” for “100”, “0.6” for “20”, “14.03” for “84.5”, “1.15” for “2.41”
[10] = test system: Mus musculus; assay: as §1, with “12.5” for “100”, “0.6” for “20”, “6.03” for “84.5”, “1.02” for “2.41”
[11] = test system: Mus musculus; assay: as §1, with “6.25” for “100”, “0.6” for “20”, “2.44” for “84.5”, “0.87” for “2.41”
[12] = test system: Mus musculus; assay: as §1, with “50” for “100”, “0.6” for “20”, “64.33” for “84.5”, “3.41” for “2.41”

Compound	Activity [1] [cmH2O/ml]	Activity [2] [cmH2O/ml]	Activity [3] [cmH2O/ml]	Activity [4] [ng/mL]	Activity [5] [cmH2O/ml]	Activity [6] [cmH2O/ml]	other results
CC(C)=CCC[C@](C)(O[C@@H]1O[C@H](CO)[C@@H](O)[C@H](O)[C@H]1O)[C@H]1CC[C@]2(C)[C@@H]1[C@H](O)C[C@@H]1[C@@]3(C)CC[C@H](O)C(C)(C)[C@@H]3CC[C@]12C	6.21	4.14	2.47	1501.85	5.04	4.79	–
CC(C)=CCC[C@](C)(O[C@H]1O[C@@H](C)[C@H](O)[C@@H](O)[C@H]1O)[C@H]1CC[C@]2(C)[C@@H]1C(=O)C[C@@H]1[C@@]3(C)CC[C@H](O)C(C)(C)[C@@H]3CC[C@]12C	–	–	–	2706.85	–	–	–
CC(C)=CCC[C@](C)(O[C@@H]1O[C@H](CO)[C@H](O)[C@H](O)[C@H]1O)[C@H]1CC[C@]2(C)[C@@H]1C(=O)C[C@@H]1[C@@]3(C)CC[C@H](O)C(C)(C)[C@@H]3CC[C@]12C	6.35	2.78	2.04	975.82	4.81	3.28	–
CC(C)=CCC[C@](C)(O[C@@H]1O[C@H](CO)[C@@H](O)[C@H](O)[C@H]1O)[C@H]1CC[C@]2(C)[C@@H]1/C(=N/O)C[C@@H]1[C@@]3(C)CC/C(=N\O)C(C)(C)[C@@H]3CC[C@]12C	5.73	5.06	3.4	1258.27	4.93	5.72	–
CC(C)(O)CCC[C@](C)(O[C@@H]1O[C@H](CO)[C@@H](O)[C@H](O)[C@H]1O)[C@H]1CC[C@]2(C)[C@@H]1C(=O)C[C@@H]1[C@@]3(C)CC[C@H](O)C(C)(C)[C@@H]3CC[C@]12C	–	–	–	2027.95	–	–	–
CO[C@H]1CC[C@]2(C)[C@H]3CC(=O)[C@@H]4[C@@H]([C@](C)(CCC=C(C)C)O[C@@H]5O[C@H](CO)[C@@H](O)[C@H](O)[C@H]5O)CC[C@@]4(C)[C@]3(C)CC[C@H]2C1(C)C	–	–	–	3593.38	–	–	–
CC(C)=CCC[C@](C)(O[C@@H]1OC[C@@H](O)[C@H](O)[C@H]1O)[C@H]1CC[C@]2(C)[C@@H]1C(=O)C[C@@H]1[C@@]3(C)CC[C@H](O)C(C)(C)[C@@H]3CC[C@]12C	–	–	–	2439.3	–	–	–
CC(=O)O[C@H]1CC[C@]2(C)[C@H]3CC(=O)[C@@H]4[C@@H]([C@](C)(CCC=C(C)C)O[C@@H]5O[C@H](CO)[C@@H](O)[C@H](O)[C@H]5O)CC[C@@]4(C)[C@]3(C)CC[C@H]2C1(C)C	–	–	–	3224.5	–	–	–
CO/N=C1\CC[C@]2(C)[C@H]3CC(=O)[C@@H]4[C@@H]([C@](C)(CCC=C(C)C)O[C@@H]5O[C@H](CO)[C@@H](O)[C@H](O)[C@H]5O)CC[C@@]4(C)[C@]3(C)CC[C@H]2C1(C)C	–	–	–	2023.54	–	–	–
CC(C)CCC[C@](C)(O[C@@H]1O[C@H](CO)[C@@H](O)[C@H](O)[C@H]1O)[C@H]1CC[C@]2(C)[C@@H]1C(=O)C[C@@H]1[C@@]3(C)CC[C@H](O)C(C)(C)[C@@H]3CC[C@]12C	–	–	–	1976.31	–	–	–
CC(C)=CCC[C@](C)(O[C@@H]1O[C@H](CO)[C@@H](O)[C@H](O)[C@H]1O)[C@H]1CC[C@]2(C)[C@@H]1C(=O)C[C@@H]1[C@@]3(C)CCC(=O)C(C)(C)[C@@H]3CC[C@]12C	–	–	–	2439.3	–	–	–
CC(C)=CCC[C@](C)(O[C@@H]1O[C@H](CO)[C@@H](O)[C@H](O)[C@H]1O)[C@H]1CC[C@]2(C)[C@@H]1C(=O)C[C@@H]1[C@@]3(C)CC/C(=N\O)C(C)(C)[C@@H]3CC[C@]12C	–	–	–	1968.31	–	–	–
CC(C)=CCC[C@](C)(O[C@@H]1O[C@H](CO)[C@@H](O)[C@H](O)[C@@H]1O)[C@H]1CC[C@]2(C)[C@@H]1C(=O)C[C@@H]1[C@@]3(C)CC[C@H](O)C(C)(C)[C@@H]3CC[C@]12C	5.97	3.54	2.83	1136.96	4.94	3.58	–
CC(C)=CCC[C@](C)(O[C@@H]1O[C@H](CO)[C@@H](O)[C@H](O)[C@H]1O)[C@H]1CC[C@]2(C)[C@@H]1C(=O)C[C@@H]1[C@@]3(C)CC=CC(C)(C)[C@@H]3CC[C@]12C	5.76	3.24	2.86	1191.08	5.61	4.89	–
CC(C)=CCC[C@](C)(O[C@@H]1O[C@H](CO)[C@@H](O)[C@H](O)[C@H]1O)[C@H]1CC[C@]2(C)[C@@H]1C(=O)C[C@@H]1[C@@]3(C)CC[C@H](O)C(C)(C)[C@@H]3CC[C@]12C	6.79	3.13	2.18	1237.11	5.9	4.65	–
CC(=O)OCC(=O)[C@@]1(O)[C@H](C)C[C@H]2[C@@H]3CCC4=CC(=O)C=C[C@]4(C)[C@@]3(F)[C@@H](O)C[C@@]21C [DEXAMETHASONE ACETATE]	–	–	–	–	–	–	Activity [7]: 3.06 cmH2O/ml; Activity [8]: 1131.05 ng/mL; Activity [9]: 3.36 cmH2O/ml; Activity [10]: 3.09 cmH2O/ml; Activity [11]: 2.89 cmH2O/ml; Activity [12]: 3.04 cmH2O/ml

Source: ChEMBL document CHEMBL4308873, “Synthesis and biological evaluation of Ginsenoside Compound K analogues as a novel class of anti-asthmatic agents” (2019)
